What was measured:
Type in all cases: biochemical
CDK6/cyclinD3 human = CDK6/cyclinD3 human (Homo sapiens, UniProt Q00534); experiment: Kinase profiling C3.7 CDK6/cyclinD3 human; settings: CDK6/cyclinD3, test concentration of 10^−6 M
Procedure: (§1) The in vitro inhibition of a panel of kinases was assessed using either the glass-fiber filter technology as described by Davies, S. P. et al., Biochem J. (2000), 351; p. 95-105. In the glass-fiber filter technology the activity of the kinase of interest is measured using an appropriate substrate that is incubated with the aforementioned kinase protein in the presence of (^33P) radiolabeled ATP. (^33P) Phosporylation of the substrate is subsequently measured as radioactivity bound on a glassfiber-filter.
(§2) All kinases are pre-diluted to a 10× working concentration prior to addition into the assay. The composition of the dilution buffer for each kinase is detailed below.
(§3) All substrates are dissolved and diluted to working stocks in de-ionised water, apart from histone H1 that is stored in 10× working stock in 20 mM MOPS pH 7.4.
(§4) In a final reaction volume of 25 μl, CDK6/cyclinD3 human (5-10 mU) is incubated with 8 mM MOPS pH 7.0, 0.2 mM EDTA, 0.1 mg/ml histone H1, 10 mM MgAcetate and [γ-^33P-ATP] (specific activity approx. 500 cpm/pmol, concentration as required). The reaction is initiated by the addition of the MgATP mix. After incubation for 40 minutes at room temperature, the reaction is stopped by the addition of 5 μl of a 3% phosphoric acid solution. 10 μl of the reaction is then spotted onto a P30 filtermat and washed three times for 5 minutes in 75 mM phosphoric acid and once in methanol prior to drying and scintillation counting.

CDK2/cyclinE (h) = CDK2/cyclinE (h) (Homo sapiens, UniProt P24941); experiment: Kinase profiling C3.4 CDK2/cyclinE human; settings: test concentration of 10^−6 M
Procedure: as §1, §2, §3
as §4, with “CDK2/cyclinE (h)” for “CDK6/cyclinD3 human”

CDK2/cyclinA (h) = CDK2/cyclinA (h) (Homo sapiens, UniProt P24941); experiment: Kinase profiling C3.3 CDK2/cyclinA human; settings: test concentration of 10^−6 M
Procedure: as §1, §2, §3
as §4, with “CDK2/cyclinA (h)” for “CDK6/cyclinD3 human”

CDK5/p35 human = CDK5/p35 human (Homo sapiens, UniProt Q00535); experiment: Kinase profiling C3.6 CDK5/p35 human; settings: CDK5/p35, test concentration of 10^−6 M
Procedure: as §1, §2, §3
as §4, with “CDK5/p35” for “CDK6/cyclinD3”

CDK3/cyclinE (h) = CDK3/cyclinE (h) (Homo sapiens, UniProt Q00526); experiment: Kinase profiling C3.5 CDK3/cyclinE human; settings: test concentration of 10^−6 M
Procedure: as §1, §2, §3
as §4, with “CDK3/cyclinE (h)” for “CDK6/cyclinD3 human”

GSK-3β = GSK-3β (Homo sapiens, UniProt P49841); experiment: GSK-3 kinase assay (C1), GSK-3β; settings: 1 μM ATP; for IC50: read-out: C1 Score β
Procedure: (§5) In vitro GSK-3 assays were performed at room temperature in a 100 μl reaction volume of 25 mM Tris (pH 7.4) containing 10 mM MgCl2.6H2O, 1 mM DTT, 0.1 mg/ml BSA, 5% glycerol, 5.7 ng/μl GSK-3β or 0.25 ng/μl GSK-3α, 5 μM biotinylated CREB peptide, 1 μM ATP, 0.85 μCi/ml ^33P-ATP and a suitable amount of a test compound. After one hour, the reaction was terminated by adding 70 μl of Stop mix (0.1 mM ATP, 5 mg/ml streptavidin coated PVT SPA beads, pH 11.0). The beads were allowed to settle overnight and the radioactivity attached to the beads was counted in a microtiter plate scintillation counter and compared with the results obtained in a control experiment (without the presence of a test compound) in order to determine the percentage of GSK-3 inhibition. The IC50 value, i.e. the concentration (M) of the test compound at which 50% of GSK-3 is inhibited, was calculated from the dose response curve obtained by performing the above-described GSK-3 assay in the presence of different amounts of the test compound. Score 1=pIC50 value<6, Score 2=pIC50 value from 6-7, Score 3=pIC50 value from 7-8, Score 4=pIC50 value>8.

GSK-3α = GSK-3α (Homo sapiens, UniProt P49840); experiment: GSK-3 kinase assay (C1), GSK-3α; settings: 1 μM ATP, read-out: C1 Score α
Procedure: as §5

CDK1/cyclinB (h) = CDK1/cyclinB (h) (Homo sapiens, UniProt P06493); experiment: Kinase profiling C3.2 CDK1/cyclinB human; settings: test concentration of 10^−6 M
Procedure: as §1, §2, §3
as §4, with “CDK1/cyclinB (h)” for “CDK6/cyclinD3 human”

CDK7/cyclinH/MAT1 (h) = CDK7/cyclinH/MAT1 (h) (Homo sapiens, UniProt P50613); experiment: Kinase profiling C3.8 CDK7/cyclinH/MAT1 human; settings: CDK7/cyclinH/MAT1, test concentration of 10^−6 M
Procedure: as §1, §2, §3
as §4, with “CDK7/cyclinH/MAT1 (h)” for “CDK6/cyclinD3 human”, “500 μM peptide,” for “0.1 mg/ml histone H1,”

CDK1/cyclinB (h), sequence (P06493 whole entry): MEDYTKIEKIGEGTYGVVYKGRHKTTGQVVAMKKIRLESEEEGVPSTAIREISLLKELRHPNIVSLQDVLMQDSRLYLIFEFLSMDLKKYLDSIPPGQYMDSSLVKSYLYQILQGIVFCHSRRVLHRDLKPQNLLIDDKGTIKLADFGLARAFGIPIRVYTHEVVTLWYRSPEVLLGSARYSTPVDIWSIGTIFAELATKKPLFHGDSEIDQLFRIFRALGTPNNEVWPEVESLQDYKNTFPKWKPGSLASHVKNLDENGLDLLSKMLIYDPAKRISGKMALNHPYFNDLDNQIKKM
CDK1/cyclinB (h), sequence (P14635 whole entry partner): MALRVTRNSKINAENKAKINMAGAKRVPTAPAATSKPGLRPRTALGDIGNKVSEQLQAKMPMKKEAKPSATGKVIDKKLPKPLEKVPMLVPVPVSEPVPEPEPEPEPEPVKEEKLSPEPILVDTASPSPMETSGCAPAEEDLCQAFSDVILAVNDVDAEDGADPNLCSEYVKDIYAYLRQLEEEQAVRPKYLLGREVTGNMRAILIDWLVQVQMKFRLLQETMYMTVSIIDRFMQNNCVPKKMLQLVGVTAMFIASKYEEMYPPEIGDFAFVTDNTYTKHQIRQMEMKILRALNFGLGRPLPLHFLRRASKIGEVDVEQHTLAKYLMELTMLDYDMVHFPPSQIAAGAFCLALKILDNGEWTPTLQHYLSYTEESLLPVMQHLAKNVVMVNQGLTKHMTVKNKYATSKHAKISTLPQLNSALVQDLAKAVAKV
CDK5/p35 human, sequence (Q00535 whole entry): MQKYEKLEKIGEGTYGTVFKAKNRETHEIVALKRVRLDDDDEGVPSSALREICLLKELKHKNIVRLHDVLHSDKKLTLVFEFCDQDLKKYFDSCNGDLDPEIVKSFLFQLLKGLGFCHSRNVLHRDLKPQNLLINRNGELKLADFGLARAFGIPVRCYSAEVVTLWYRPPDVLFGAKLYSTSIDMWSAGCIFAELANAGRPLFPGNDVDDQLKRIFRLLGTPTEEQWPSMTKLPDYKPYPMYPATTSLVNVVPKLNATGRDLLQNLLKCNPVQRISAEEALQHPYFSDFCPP
CDK5/p35 human, sequence (Q15078 whole entry partner): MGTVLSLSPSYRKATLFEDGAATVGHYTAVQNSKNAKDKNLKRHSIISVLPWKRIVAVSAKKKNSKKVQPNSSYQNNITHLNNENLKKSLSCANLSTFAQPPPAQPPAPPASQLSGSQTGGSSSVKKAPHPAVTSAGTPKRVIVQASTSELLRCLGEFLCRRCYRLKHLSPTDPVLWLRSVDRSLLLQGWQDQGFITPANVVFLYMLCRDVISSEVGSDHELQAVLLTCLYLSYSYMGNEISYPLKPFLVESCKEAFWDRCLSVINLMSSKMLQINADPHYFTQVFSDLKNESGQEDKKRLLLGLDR
GSK-3β, sequence (P49841 whole entry, species assumed): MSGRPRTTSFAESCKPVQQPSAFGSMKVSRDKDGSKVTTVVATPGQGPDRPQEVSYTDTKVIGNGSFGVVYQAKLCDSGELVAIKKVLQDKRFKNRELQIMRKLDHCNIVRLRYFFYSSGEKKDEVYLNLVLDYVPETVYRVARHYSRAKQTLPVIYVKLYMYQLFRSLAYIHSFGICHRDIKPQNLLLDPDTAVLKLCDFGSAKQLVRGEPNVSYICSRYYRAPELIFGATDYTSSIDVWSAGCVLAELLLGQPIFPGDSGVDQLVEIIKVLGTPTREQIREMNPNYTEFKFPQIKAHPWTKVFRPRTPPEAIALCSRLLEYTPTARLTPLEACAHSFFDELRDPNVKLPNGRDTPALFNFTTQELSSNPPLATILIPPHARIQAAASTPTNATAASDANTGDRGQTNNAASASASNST
CDK7/cyclinH/MAT1 (h), sequence (P50613 whole entry): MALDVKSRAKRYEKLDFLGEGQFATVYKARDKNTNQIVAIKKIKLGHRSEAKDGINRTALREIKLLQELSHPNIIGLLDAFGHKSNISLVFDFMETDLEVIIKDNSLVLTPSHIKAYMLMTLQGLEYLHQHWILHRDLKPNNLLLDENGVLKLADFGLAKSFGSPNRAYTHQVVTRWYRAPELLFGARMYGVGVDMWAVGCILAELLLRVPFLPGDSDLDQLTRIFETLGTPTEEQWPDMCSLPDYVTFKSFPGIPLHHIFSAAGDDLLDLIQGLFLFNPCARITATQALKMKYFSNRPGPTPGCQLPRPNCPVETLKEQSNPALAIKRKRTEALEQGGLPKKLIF
CDK7/cyclinH/MAT1 (h), sequence (P51946 whole entry partner): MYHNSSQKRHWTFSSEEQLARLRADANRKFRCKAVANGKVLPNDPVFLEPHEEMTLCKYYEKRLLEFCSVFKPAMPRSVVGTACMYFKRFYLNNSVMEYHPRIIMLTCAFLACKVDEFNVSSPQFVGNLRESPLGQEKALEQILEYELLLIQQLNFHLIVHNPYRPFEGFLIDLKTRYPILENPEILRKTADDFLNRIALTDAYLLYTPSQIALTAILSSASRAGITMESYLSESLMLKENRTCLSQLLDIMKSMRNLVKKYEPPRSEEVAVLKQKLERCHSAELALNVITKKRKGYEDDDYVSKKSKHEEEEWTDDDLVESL
CDK7/cyclinH/MAT1 (h), sequence (P51948 whole entry partner): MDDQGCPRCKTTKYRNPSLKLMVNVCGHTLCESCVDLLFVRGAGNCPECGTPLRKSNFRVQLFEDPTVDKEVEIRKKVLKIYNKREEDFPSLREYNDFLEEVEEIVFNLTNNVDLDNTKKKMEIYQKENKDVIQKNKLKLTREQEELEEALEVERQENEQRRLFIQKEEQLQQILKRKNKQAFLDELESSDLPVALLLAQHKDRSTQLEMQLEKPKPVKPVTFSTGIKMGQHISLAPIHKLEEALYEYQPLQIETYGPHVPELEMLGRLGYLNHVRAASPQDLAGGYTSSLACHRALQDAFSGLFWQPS
GSK-3α, sequence (P49840 whole entry, species assumed): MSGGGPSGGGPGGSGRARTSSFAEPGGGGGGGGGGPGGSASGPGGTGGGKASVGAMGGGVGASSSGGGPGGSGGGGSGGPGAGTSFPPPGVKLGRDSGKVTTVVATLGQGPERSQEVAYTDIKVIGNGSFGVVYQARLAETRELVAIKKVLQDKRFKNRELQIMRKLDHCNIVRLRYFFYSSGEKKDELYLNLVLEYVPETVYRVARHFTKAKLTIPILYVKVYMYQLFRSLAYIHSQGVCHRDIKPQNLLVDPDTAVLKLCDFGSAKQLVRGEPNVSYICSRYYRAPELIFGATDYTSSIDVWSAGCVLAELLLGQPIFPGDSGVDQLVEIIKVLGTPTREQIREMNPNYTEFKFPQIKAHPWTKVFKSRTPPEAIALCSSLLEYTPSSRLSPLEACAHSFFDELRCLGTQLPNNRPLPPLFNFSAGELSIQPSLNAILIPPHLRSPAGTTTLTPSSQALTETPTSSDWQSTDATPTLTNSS
CDK6/cyclinD3 human, sequence (Q00534 whole entry): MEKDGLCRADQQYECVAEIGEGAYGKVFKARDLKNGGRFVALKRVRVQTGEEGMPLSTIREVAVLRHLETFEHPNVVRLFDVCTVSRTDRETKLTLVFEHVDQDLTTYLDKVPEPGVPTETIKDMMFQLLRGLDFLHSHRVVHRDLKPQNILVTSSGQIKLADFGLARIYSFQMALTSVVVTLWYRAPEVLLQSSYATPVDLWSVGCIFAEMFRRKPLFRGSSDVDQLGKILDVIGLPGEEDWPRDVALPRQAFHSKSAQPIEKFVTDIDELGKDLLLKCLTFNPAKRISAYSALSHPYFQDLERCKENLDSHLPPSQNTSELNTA
CDK6/cyclinD3 human, sequence (P30281 whole entry partner): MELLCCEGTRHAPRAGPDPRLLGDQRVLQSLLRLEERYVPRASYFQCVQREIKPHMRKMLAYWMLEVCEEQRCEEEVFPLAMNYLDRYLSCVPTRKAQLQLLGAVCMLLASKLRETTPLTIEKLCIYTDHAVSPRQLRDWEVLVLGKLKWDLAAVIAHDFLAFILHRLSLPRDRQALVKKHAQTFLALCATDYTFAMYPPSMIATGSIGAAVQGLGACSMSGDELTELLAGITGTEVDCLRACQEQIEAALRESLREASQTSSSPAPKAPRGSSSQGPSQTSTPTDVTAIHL

CN1CCC(=O)NCCNc2cc(ccn2)-c2ncnc(n2)Nc2cccc(c2)C1 [Compound 17]
C3.7 score (CDK6/cyclinD3 human): 2 (Score 2 = 30-60% inhibition) | C3.4 score (CDK2/cyclinE (h)): 4 (Score 4 = >80% inhibition) | C3.3 score (CDK2/cyclinA (h)): 4 (Score 4 = >80% inhibition) | C3.6 score (CDK5/p35 human): 4 (Score 4 = >80% inhibition) | C3.5 score (CDK3/cyclinE (h)): 4 (Score 4 = >80% inhibition) | IC50 (GSK-3β): 10 to 100 nM | IC50 (GSK-3α): 10 to 100 nM | C3.2 score (CDK1/cyclinB (h)): 4 (Score 4 = >80% inhibition) | C3.8 score (CDK7/cyclinH/MAT1 (h)): 3 (Score 3 = 60-80% inhibition)

O=C1NCCNc2cc(ccn2)-c2ncnc(n2)Nc2cccc(c2)CN2CCC[C@H]12 [Compound 18]
C3.7 score (CDK6/cyclinD3 human): 1 (Score 1 = 10-30% inhibition) | C3.4 score (CDK2/cyclinE (h)): 4 (Score 4 = >80% inhibition) | C3.3 score (CDK2/cyclinA (h)): 4 (Score 4 = >80% inhibition) | C3.6 score (CDK5/p35 human): 2 (Score 2 = 30-60% inhibition) | C3.5 score (CDK3/cyclinE (h)): 3 (Score 3 = 60-80% inhibition) | IC50 (GSK-3β): 100 to 1000 nM | IC50 (GSK-3α): 100 to 1000 nM | C3.2 score (CDK1/cyclinB (h)): 3 (Score 3 = 60-80% inhibition) | C3.8 score (CDK7/cyclinH/MAT1 (h)): 2 (Score 2 = 30-60% inhibition)

O=C1CCN2CCN(CC2)Cc2cccc(c2)Nc2ncnc(n2)-c2ccnc(c2)NCCN1 [Compound 19]
C3.7 score (CDK6/cyclinD3 human): 2 (Score 2 = 30-60% inhibition) | C3.4 score (CDK2/cyclinE (h)): 4 (Score 4 = >80% inhibition) | C3.3 score (CDK2/cyclinA (h)): 4 (Score 4 = >80% inhibition) | C3.6 score (CDK5/p35 human): 3 (Score 3 = 60-80% inhibition) | C3.5 score (CDK3/cyclinE (h)): 4 (Score 4 = >80% inhibition) | IC50 (GSK-3β): 10 to 100 nM | IC50 (GSK-3α): 100 to 1000 nM | C3.2 score (CDK1/cyclinB (h)): 4 (Score 4 = >80% inhibition) | C3.8 score (CDK7/cyclinH/MAT1 (h)): 2 (Score 2 = 30-60% inhibition)

CN1CCC(=O)NCCNc2cc(ccn2)-c2ncnc(n2)Nc2cccc(c2)C1 [Compound 20]
C3.7 score (CDK6/cyclinD3 human): 1 (Score 1 = 10-30% inhibition) | C3.4 score (CDK2/cyclinE (h)): 4 (Score 4 = >80% inhibition) | C3.3 score (CDK2/cyclinA (h)): 4 (Score 4 = >80% inhibition) | C3.6 score (CDK5/p35 human): 3 (Score 3 = 60-80% inhibition) | C3.5 score (CDK3/cyclinE (h)): 4 (Score 4 = >80% inhibition) | C1 Score β (GSK-3β): 3 (Score 3=pIC50 value from 7-8) | IC50 (GSK-3α): 100 to 1000 nM | C3.2 score (CDK1/cyclinB (h)): 3 (Score 3 = 60-80% inhibition) | C3.8 score (CDK7/cyclinH/MAT1 (h)): 2 (Score 2 = 30-60% inhibition)

O=C1NCCCNc2cc(ccn2)-c2ncnc(n2)Nc2cccc(c2)CN2CCC[C@@H]12 [Compound 21]
C3.7 score (CDK6/cyclinD3 human): 1 (Score 1 = 10-30% inhibition) | C3.4 score (CDK2/cyclinE (h)): 4 (Score 4 = >80% inhibition) | C3.3 score (CDK2/cyclinA (h)): 4 (Score 4 = >80% inhibition) | C3.6 score (CDK5/p35 human): 3 (Score 3 = 60-80% inhibition) | C3.5 score (CDK3/cyclinE (h)): 4 (Score 4 = >80% inhibition) | IC50 (GSK-3β): 100 to 1000 nM | IC50 (GSK-3α): 100 to 1000 nM | C3.2 score (CDK1/cyclinB (h)): 4 (Score 4 = >80% inhibition) | C3.8 score (CDK7/cyclinH/MAT1 (h)): 2 (Score 2 = 30-60% inhibition)

O=C1CCN2CCN(CC2)Cc2cccc(c2)Nc2ncnc(n2)-c2ccnc(c2)NCCCN1 [Compound 22]
C3.7 score (CDK6/cyclinD3 human): 1 (Score 1 = 10-30% inhibition) | C3.4 score (CDK2/cyclinE (h)): 4 (Score 4 = >80% inhibition) | C3.3 score (CDK2/cyclinA (h)): 4 (Score 4 = >80% inhibition) | C3.6 score (CDK5/p35 human): 2 (Score 2 = 30-60% inhibition) | C3.5 score (CDK3/cyclinE (h)): 4 (Score 4 = >80% inhibition) | IC50 (GSK-3β): 100 to 1000 nM | IC50 (GSK-3α): 100 to 1000 nM | C3.2 score (CDK1/cyclinB (h)): 4 (Score 4 = >80% inhibition) | C3.8 score (CDK7/cyclinH/MAT1 (h)): 1 (Score 1 = 10-30% inhibition)

CN1Cc2cccc(c2)Nc2ncnc(n2)-c2ccnc(c2)NCCCNC(=O)CCN2CCC1CC2 [Compound 23]
C3.7 score (CDK6/cyclinD3 human): 1 (Score 1 = 10-30% inhibition) | C3.4 score (CDK2/cyclinE (h)): 4 (Score 4 = >80% inhibition) | C3.3 score (CDK2/cyclinA (h)): 3 (Score 3 = 60-80% inhibition) | C3.6 score (CDK5/p35 human): 2 (Score 2 = 30-60% inhibition) | C3.5 score (CDK3/cyclinE (h)): 3 (Score 3 = 60-80% inhibition) | IC50 (GSK-3β): 100 to 1000 nM | IC50 (GSK-3α): 100 to 1000 nM | C3.2 score (CDK1/cyclinB (h)): 2 (Score 2 = 30-60% inhibition) | C3.8 score (CDK7/cyclinH/MAT1 (h)): 1 (Score 1 = 10-30% inhibition)

CN1CCCC(=O)NCCc2cccc(c2)Nc2ncnc(n2)-c2ccnc(c2)CCC1 [Compound 24]
C3.7 score (CDK6/cyclinD3 human): 1 (Score 1 = 10-30% inhibition) | C3.4 score (CDK2/cyclinE (h)): 3 (Score 3 = 60-80% inhibition) | C3.3 score (CDK2/cyclinA (h)): 3 (Score 3 = 60-80% inhibition) | C3.6 score (CDK5/p35 human): 2 (Score 2 = 30-60% inhibition) | C3.5 score (CDK3/cyclinE (h)): 2 (Score 2 = 30-60% inhibition) | IC50 (GSK-3β): 10 to 100 nM | IC50 (GSK-3α): 100 to 1000 nM | C3.2 score (CDK1/cyclinB (h)): 2 (Score 2 = 30-60% inhibition) | C3.8 score (CDK7/cyclinH/MAT1 (h)): 3 (Score 3 = 60-80% inhibition)

O=C1CN2CCN(CC2)Cc2cccc(c2)Nc2ncnc(n2)-c2cccc(c2)NCCN1 [Compound 58]
C3.7 score (CDK6/cyclinD3 human): 1 (Score 1 = 10-30% inhibition) | C3.4 score (CDK2/cyclinE (h)): 2 (Score 2 = 30-60% inhibition) | C3.3 score (CDK2/cyclinA (h)): 3 (Score 3 = 60-80% inhibition) | C3.6 score (CDK5/p35 human): 2 (Score 2 = 30-60% inhibition) | C3.5 score (CDK3/cyclinE (h)): 1 (Score 1 = 10-30% inhibition) | IC50 (GSK-3α): 10 to 100 nM | C3.2 score (CDK1/cyclinB (h)): 2 (Score 2 = 30-60% inhibition)
